Source: ChEMBL document CHEMBL1146459, “Production of biologically active taxoids by a callus culture of Taxus cuspidata” (2004)

How the values were obtained:
[1] = Growth inhibition of human HBC4 cells after 48 hrs by SRB assay; type: functional; conditions: HBC4, 48 h
DMS-114 = test: Growth inhibition of human DMS114 cells after 48 hrs by SRB assay; type: functional; conditions: DMS-114, 48 h
St-4 = test: Growth inhibition of human St-4 cells after 48 hrs by SRB assay; type: functional; conditions: St-4, 48 h
ACHN = test: Growth inhibition of human ACHN cells after 48 hrs by SRB assay; type: functional
U-251 = test: Growth inhibition of human U251 cells after 48 hrs by SRB assay; type: functional; conditions: U-251, 48 h
[2] = Reversal of multidrug resistance in human 2780AD cells assessed as [3H]vincristine accumulation at 1 ug/mL after 2 hrs relative to verapamil; type: functional, A2780 ADR
DMS-273 = test: Growth inhibition of human DMS273 cells after 48 hrs by SRB assay; type: functional; conditions: DMS-273, 48 h
[3] = Growth inhibition of human HBC5 cells after 48 hrs by SRB assay; type: functional; conditions: HBC5, 48 h
MKN-45 = test: Growth inhibition of human MKN45 cells after 48 hrs by SRB assay; type: functional; conditions: MKN-45, 48 h
SNB-78 = test: Growth inhibition of human SNB78 cells after 48 hrs by SRB assay; type: functional; conditions: SNB-78, 48 h
NCI-H23 = test: Growth inhibition of human NCI-H23 cells after 48 hrs by SRB assay; type: functional; conditions: NCI-H23, 48 h
MKN-7 = test: Growth inhibition of human MKN7 cells after 48 hrs by SRB assay; type: functional; conditions: MKN-7, 48 h
HCT-15 = test: Growth inhibition of human HCT15 cells after 48 hrs by SRB assay; type: functional; conditions: HCT-15, 48 h
[4] = Reversal of multidrug resistance in human 2780AD cells assessed as [3H]vincristine accumulation at 10 ug/mL after 2 hrs relative to verapamil; type: functional, A2780 ADR
OVCAR-5 = test: Growth inhibition of human OVCAR5 cells after 48 hrs by SRB assay; type: functional; conditions: OVCAR-5, 48 h
MCF7 = test: Growth inhibition of human MCF7 cells after 48 hrs by SRB assay; type: functional; conditions: MCF7, 48 h
SF-539 = test: Growth inhibition of human SF539 cells after 48 hrs by SRB assay; type: functional; conditions: SF-539, 48 h
A549 = test: Growth inhibition of human A549 cells after 48 hrs by SRB assay; type: functional; conditions: A549, 48 h
OVCAR-3 = test: Growth inhibition of human OVCAR-3 cells after 48 hrs by SRB assay; type: functional; conditions: OVCAR-3, 48 h
[5] = Reversal of multidrug resistance in human 2780AD cells assessed as [3H]vincristine accumulation at 0.1 ug/mL after 2 hrs relative to verapamil; type: functional, A2780 ADR
NCI-H460 = test: Growth inhibition of human NCI-H460 cells after 48 hrs by SRB assay; type: functional; conditions: NCI-H460, 48 h
SF-295 = test: Growth inhibition of human SF295 cells after 48 hrs by SRB assay; type: functional; conditions: SF-295, 48 h
[6] = read-out: LC50 (the source's name)
[7] = read-out: pLC50 (the source's name) (converted)

For `C=C1[C@@H](OC(C)=O)CC[C@@]2(C)C[C@H](OC(C)=O)C3=C(C)C[C@H](OC(=O)C(C)CC)[C@@H]([C@@H](OC(C)=O)[C@H]12)C3(C)C` (stereo partly drawn), the GI50 ([1]; read-out: GI50) was 72 µM, the CC50 [1, 6] was > 100 µM and the TGI ([1]; read-out: TGI) was > 100 µM. The GI50 ([1]; read-out: pGI50 (converted)) was 72.4 µM, the CC50 [1, 7] was 100 µM and the TGI ([1]; read-out: pTGI (converted)) was 100 µM. For the same molecule, the GI50 (DMS-114; read-out: GI50) was 10 µM, the CC50 (DMS-114; [6]) was > 100 µM and the TGI (DMS-114; read-out: TGI) was 57 µM. For the same molecule, the GI50 (DMS-114; read-out: pGI50 (converted)) was 10 µM, the CC50 (DMS-114; [7]) was 100 µM and the TGI (DMS-114; read-out: pTGI (converted)) was 57.5 µM. The GI50 (St-4; read-out: GI50) was 33 µM, the CC50 (St-4; [6]) was > 100 µM and the TGI (St-4; read-out: TGI) was > 100 µM. The GI50 (St-4; read-out: pGI50 (converted)) was 33.1 µM, the CC50 (St-4; [7]) was 100 µM and the TGI (St-4; read-out: pTGI (converted)) was 100 µM. For the same molecule, the GI50 (ACHN; read-out: GI50) was 28 µM, the CC50 (ACHN; [6]) was > 100 µM and the TGI (ACHN; read-out: TGI) was > 100 µM. For the same molecule, the GI50 (ACHN; read-out: pGI50 (converted)) was 28.2 µM, the CC50 (ACHN; [7]) was 100 µM and the TGI (ACHN; read-out: pTGI (converted)) was 100 µM. The GI50 (U-251; read-out: GI50) was 36 µM, the CC50 (U-251; [6]) was > 100 µM and the TGI (U-251; read-out: TGI) was > 100 µM. For the same molecule, the GI50 (U-251; read-out: pGI50 (converted)) was 36.3 µM, the CC50 (U-251; [7]) was 100 µM and the TGI (U-251; read-out: pTGI (converted)) was 100 µM. For the same molecule, the Activity [2] was 123%, the GI50 (DMS-273; read-out: GI50) was 22 µM and the CC50 (DMS-273; [6]) was > 100 µM. For the same molecule, the TGI (DMS-273; read-out: TGI) was > 100 µM, the GI50 (DMS-273; read-out: pGI50 (converted)) was 22.4 µM and the CC50 (DMS-273; [7]) was 100 µM. The TGI (DMS-273; read-out: pTGI (converted)) was 100 µM, the GI50 ([3]; read-out: GI50) was 25 µM and the CC50 [3, 6] was > 100 µM. The TGI ([3]; read-out: TGI) was > 100 µM, the GI50 ([3]; read-out: pGI50 (converted)) was 25.1 µM and the CC50 [3, 7] was 100 µM. For the same molecule, the TGI ([3]; read-out: pTGI (converted)) was 100 µM, the GI50 (MKN-45; read-out: GI50) was 27 µM and the CC50 (MKN-45; [6]) was > 100 µM. For the same molecule, the TGI (MKN-45; read-out: TGI) was > 100 µM, the GI50 (MKN-45; read-out: pGI50 (converted)) was 26.9 µM and the CC50 (MKN-45; [7]) was 100 µM. For the same molecule, the TGI (MKN-45; read-out: pTGI (converted)) was 100 µM, the GI50 (SNB-78; read-out: GI50) was 50 µM and the CC50 (SNB-78; [6]) was > 100 µM. The TGI (SNB-78; read-out: TGI) was > 100 µM, the GI50 (SNB-78; read-out: pGI50 (converted)) was 50.1 µM and the TGI (SNB-78; read-out: pTGI (converted)) was 100 µM. For the same molecule, the GI50 (NCI-H23; read-out: GI50) was 23 µM, the CC50 (NCI-H23; [6]) was > 100 µM and the TGI (NCI-H23; read-out: TGI) was 69 µM. It also gave a GI50 (NCI-H23; read-out: pGI50 (converted)) of 22.9 µM, a CC50 (NCI-H23; [7]) of 100 µM and a TGI (NCI-H23; read-out: pTGI (converted)) of 69.2 µM. The GI50 (MKN-7; read-out: GI50) was 18 µM, the CC50 (MKN-7; [6]) was > 100 µM and the TGI (MKN-7; read-out: TGI) was 93 µM. The GI50 (MKN-7; read-out: pGI50 (converted)) was 18.2 µM, the CC50 (MKN-7; [7]) was 100 µM and the TGI (MKN-7; read-out: pTGI (converted)) was 93.3 µM. For the same molecule, the GI50 (HCT-15; read-out: GI50) was 32 µM, the CC50 (HCT-15; [6]) was > 100 µM and the TGI (HCT-15; read-out: TGI) was > 100 µM. For the same molecule, the GI50 (HCT-15; read-out: pGI50 (converted)) was 32.4 µM, the CC50 (HCT-15; read-out: pLC50 (converted)) was > 100 µM and the TGI (HCT-15; read-out: pTGI (converted)) was 100 µM. For the same molecule, the Activity [4] was 132%, the GI50 (OVCAR-5; read-out: GI50) was 48 µM and the CC50 (OVCAR-5; [6]) was > 100 µM. The TGI (OVCAR-5; read-out: TGI) was > 100 µM, the GI50 (OVCAR-5; read-out: pGI50 (converted)) was 47.9 µM and the TGI (OVCAR-5; read-out: pTGI (converted)) was 100 µM. The GI50 (MCF7; read-out: GI50) was 24 µM, the CC50 (MCF7; [6]) was > 100 µM and the TGI (MCF7; read-out: TGI) was 93 µM. For the same molecule, the GI50 (MCF7; read-out: pGI50 (converted)) was 24 µM, the CC50 (MCF7; read-out: pLC50 (converted)) was > 100 µM and the TGI (MCF7; read-out: pTGI (converted)) was 93.3 µM. For the same molecule, the GI50 (SF-539; read-out: GI50) was 45 µM, the CC50 (SF-539; [6]) was > 100 µM and the TGI (SF-539; read-out: TGI) was > 100 µM. For the same molecule, the GI50 (SF-539; read-out: pGI50 (converted)) was 44.7 µM, the CC50 (SF-539; [7]) was 100 µM and the TGI (SF-539; read-out: pTGI (converted)) was 100 µM. For the same molecule, the GI50 (A549; read-out: GI50) was 30 µM, the CC50 (A549; [6]) was > 100 µM and the TGI (A549; read-out: TGI) was > 100 µM. It also gave a GI50 (A549; read-out: pGI50 (converted)) of 30.2 µM, a CC50 (A549; [7]) of 100 µM and a TGI (A549; read-out: pTGI (converted)) of 100 µM. For the same molecule, the GI50 (OVCAR-3; read-out: GI50) was 21 µM, the CC50 (OVCAR-3; [6]) was > 100 µM and the TGI (OVCAR-3; read-out: TGI) was 99 µM. The GI50 (OVCAR-3; read-out: pGI50 (converted)) was 20.4 µM, the CC50 (OVCAR-3; read-out: pLC50 (converted)) was > 100 µM and the TGI (OVCAR-3; read-out: pTGI (converted)) was 100 µM. The Activity [5] was 95%, the GI50 (NCI-H460; read-out: GI50) was 36 µM and the CC50 (NCI-H460; [6]) was > 100 µM. The TGI (NCI-H460; read-out: TGI) was > 100 µM, the GI50 (NCI-H460; read-out: pGI50 (converted)) was 35.5 µM and the TGI (NCI-H460; read-out: pTGI (converted)) was 100 µM. The GI50 (SF-295; read-out: GI50) was 21 µM, the CC50 (SF-295; [6]) was > 100 µM and the TGI (SF-295; read-out: TGI) was > 100 µM. It also gave a GI50 (SF-295; read-out: pGI50 (converted)) of 21.4 µM and a TGI (SF-295; read-out: pTGI (converted)) of 100 µM.
